Experimental data published in patent publication US20220340899A1, “STEREOSELECTIVE PH RESPONSIVE PEPTIDE DENDRIMERS FOR NUCLEIC ACID TRANSFECTION” (UNIVERSITÄT BERN, priority 2019, published 2022).

Key:
[1] = Critical micellar concentration / aggregation by Nile red assay; format: physicochemical
Experimental: Critical Micellar Concentration (CMC): Nile red is known to have a higher fluorescence when being surrounded by a hydrophobic environment and this experiment is derived from known procedure but applied to 96-well plates. To see if the CMC determination is working in our hands with our assay, we first performed it with dodecylphosphocholine and found a value of 0.3125 mg/mL, corresponding to 0.9 mM which is in accordance with values between 0.9 and 1.1 mM from literature (data not shown). Briefly, Nile red (Sigma aldrich, Buchs, CH) was diluted in methanol at a concentration of 2 μM and 5 μL was added to each well of a TPP 96-well plate (Faust Laborbedarf AG, Schaffhausen) and dry under the fumehood air flow at room temperature for 1 h. Serial dilution of the peptide dendrimers, L2000 and dodecylphosphocholine (Avanti polar lipids, Alablaster, USA) were performed in 10 mM phosphate buffer (pH 5 or pH 7.4) starting from 1 mg/mL to 0.5 μg/mL and 50 μL was added to the plate containing the dried Nile red fluorophore (final concentration 0.2 μM). For the second experiment, solution of peptide dendrimers at 1 mg/mL in Milli-Q water were diluted to 0.1 mg/mL in 100 μL PB at pH ranging from 7.4 to 4 and added to dried Nile red. The plates were incubated for 2 h before measurement of fluorescence at λex=540 nm and λem=615 nm on a Tecan Infinite M1000 Pro plate reader. CMC values can be determined at the inflection point of the curves.

DU 145 = assay: Plasmid DNA (CRISPR-Cas9-GFP) transfection, GFP expression by FACS; format: cell-based
Experimental: (§1) Cell lines, transfection reagents and plasmids: The cells were maintained in DMEM medium with 10% (v/v) FCS and 1% (v/v) P/S in a humidified atmosphere in 5% CO2 and 37° C. The plasmid CRISPR-Cas9-GFP was purchased from DNA2.0. Lipofectamine 2000 (L2000) was obtained from […]. L2000 was used as positive control transfection agents, in accordance with the manufacturer's instructions.
(§2) Transfection procedure: 24 hours before transfection, cells were seeded in 96 well plates in order to reach 70-90% confluence. Peptide dendrimers/DNA complexes were formed by mixing the dendrimers (6.25 μL, from 5 μg to 6.4 μg on N/P ratio 5) with plasmid DNA (250 ng; 6.25 μL). These mixtures were incubated in OptiMEM for 30 min at 25° C. Transfection control complexes, L2000, was mixed with plasmid DNA (250 ng; 6.25 μL) at the respective manufacturers' recommended concentrations. Before overlaying the DNA complexes on the cells, OptiMEM was added to dilute the complexes, so that each complex contained 250 ng DNA in a total volume of 100 μL in one well of a 96 well plate. After removing complete media from the cells, the complexes were added to the plates. The plates were incubated for 4 hours at 37° C. Then, the transfection solutions were replaced by full growth media for 40 hours before transfection efficiency was assayed.
(§3) Transgene expression assay: The cells were washed twice with PBS and incubated with trypsin for 20 min at 37° C. Then 100 μL of PBS were added to each well and the transfection efficiency was assessed by FACS analysis (BD LSRFortessa).
(§4) For example, a study for transfecting plasmid DNA using similar peptide dendrimers and a large plasmid DNA coding for CRISPR-Cas9-GFP (−9 Kbp). The Cas9-2A-GFP vector allows the co-expression of Cas9 and GFP from the same mRNA. The self-cleavable peptide 2A allows the release of GFP reporter in the cytoplasm after the expression, so that the transfection efficiency was determined by tracking the expression of GFP (green fluorescent protein) in various cell lines upon exposure to the corresponding plasmid complexes with dendrimers at N/P=5. We tracked transfection efficiency by fluorescence activated cell sorting, and counted the percentage of successfully transfected cells, which appeared fluorescent. […] Most remarkably, dendrimer mediated transfection is found to be far more efficient than with the reference reagent L2000. […] However, cysteine containing monomers also transfected in the presence of reducing agents preventing dimer formation, showing that disulfide bridge formation is not required for DNA transfection.

NIH 3T3 = assay: as above; format: cell-based
Experimental: as §1, §2, §3, §4

[2] = percentage of fluorescent cells, 20K events, N/P 5

Compound	CMC ([1]; assay validation) [mg/mL]	CMC ([1]; converted from mg/mL) [mM]	FI (Fold Increase in transfection efficiency in comparison to L2000) DU 145 (DU 145)	Transfection efficiency (%) DU 145 (DU 145; [2]) [%]	FI (Fold Increase in transfection efficiency in comparison to L2000) NIH 3T3 (NIH 3T3)	Transfection efficiency (%) NIH 3T3 (NIH 3T3; [2]) [%]
CCCCCCCCCCCCOP(=O)([O-])OCC[N+](C)(C)C [dodecylphosphocholine, reference compound]	0.3125	0.9				
(KL)8(KKL)4(KKL)2KK(C22) [KL1,2,3-C22]			4	30.6 ± 4	6	16.2 ± 4
